Consider two molecules from US7485659B2, “Anticancer compositions, and methods of making and using the same” (Faustus Forschungs CIE, Translational Cancer Research GmbH, priority 2001, dated 2009).

SMILES strings stand for the structures. Bounds are passed on as bounds.

Data set [1] deals with human line of tumor cells SW480 (colon carcinoma). Briefly: MTT assay, continuous 96 hour exposure, SW480. In kind it is cell-based. The method, then: (§1) The cytotoxic effects of KP 1019 and combinations of KP 1339 and indazol in different molar ratios (administered as solution in the conventional cell culture medium MEM, supplemented with 10% fetal bovine serum, without the addition of organic solvents or dissolving agents) have been comparatively investigated on the human line of tumor cells SW480 (colon carcinoma) and CH1 (ovarian carcinoma) in the MTT assay under the application of a continuous 96 hour exposure to the active substance.
In general terms: Tetrazolium dyes change colour on reduction, which living cells bring about.

Data set [2] relates to human line of tumor cells CH1 (ovarian carcinoma). Briefly: MTT assay, continuous 96 hour exposure, CH1. Format: cell-based. The method, then:
as §1

The next data set is described as follows: Water-solubility. In kind it is physicochemical.
In data set [3] the test system is stem cells of human solid tumors and continuous human tumor cell lines. Briefly: In vitro antiproliferative experiments on stem cells of human solid tumors (nude mice xenografts) and continuous human tumor cell lines. In kind it is cell-based. The conditions noted are these: stem cells of human solid tumors bred as nude mice xenografts. (In general: A xenograft is tissue or cells of one species grown in another, often human tumour cells in immunodeficient mice.)

Turning to `c1ccc2[nH]ncc2c1` [Indazol, indazol, reference compound], the “concentration at which a cytotoxic effect is exhibited” value in data set [1] and in data set [2] was above 1000 µM throughout.

In the case of `[Cl][Ru-]([Cl])([Cl])[Cl].[Na+].c1ccc2[nH]ncc2c1.c1ccc2[nH]ncc2c1` [KP 1339, sodium trans-[RuCl4(ind)2]], the “water-solubility (in words)” value in “Water-solubility” is on record as “easily water-soluble”. Further, in the data set “Water-solubility” (compared with KP 1019), the “water-solubility relative to KP 1019” value was “more than thirty times higher than KP 1019”. In addition, the “antiproliferative effectiveness in vitro compared with KP 1019” value in data set [3] is on record as “clearly weaker antiproliferative effectiveness than KP 1019”. For the same molecule, the “tumor inhibiting (cytotoxic) activity compared with KP 1019” value in data set [1] (MEM + 10% fetal bovine serum) and in data set [2] (MEM + 10% fetal bovine serum) was “three to four times less effective than KP 1019” each time.
